Patent publication US9446119B2 (priority 2011, dated 2016)

System: PBMCs
Type: cell-based, human

Row | Substance | S.I. (stimulation index: mean spots per well containing polypeptide/mean spots per background wells) | IFNγ response to the VARV version of the polypeptide | number of subjects recognizing the peptide [subjects]
1 | LYNKPLYEVNAIITLI | 1 |  | 
2 | 18 (GVIFLISVIVLVCSCDGVIFLISVIVLVCSCN) [compound 18] | 2.1 |  | 
3 | GVIFLISVIVLVCSCN | 2.3 | detected | 
4 | KADGDDNEETLKQRLT | 1 |  | 
5 | DVLFRLENHAETLRAA | 0.7 |  | 
6 | EVLFRLENHAETLRAA [Polypeptide 21] | 2.5 |  | 
7 | CYILHSDYQLFSDAKA [Polypeptide 6] | 3.5 |  | 3
8 | CYIFHSDYQLFSDAKA | 1.1 |  | 
9 | DTFFRTSPMVIATTDI | 1.1 |  | 
